# From patent US9682995B2, “Amino-substituted isothiazoles” (BAYER PHARMA AKTIENGESELLSCHAFT, priority 2013, dated 2017)
# Tests used:
# Experiment in all cases: Kinase Profiling (KINOMEscan)
# Assay type in all cases: binding
# [1] = biological target: 456 kinases (of these 395 non-mutant kinases) (Homo sapiens, UniProt P17948); settings: FLT1; 10 μM
# [2] = biological target: 456 kinases (of these 395 non-mutant kinases) (Homo sapiens, UniProt Q9UQM7); settings: CAMK2A; 10 μM
# [3] = biological target: 456 kinases (of these 395 non-mutant kinases) (Homo sapiens, UniProt Q8WU08); settings: YANK1; 10 μM
# [4] = biological target: 456 kinases (of these 395 non-mutant kinases) (Homo sapiens, UniProt Q15349); settings: 10 μM
# [5] = biological target: 456 kinases (of these 395 non-mutant kinases) (Homo sapiens, UniProt P42336, Q546K); settings: PIK3CA(Q546K); 10 μM
# [6] = biological target: 456 kinases (of these 395 non-mutant kinases) (Homo sapiens, UniProt P42681); settings: TXK; 10 μM
# [7] = biological target: 456 kinases (of these 395 non-mutant kinases) (Homo sapiens, UniProt O95747); settings: OSR1; 10 μM
# [8] = biological target: 456 kinases (of these 395 non-mutant kinases) (Homo sapiens, UniProt Q00532); settings: CDKL1; 10 μM
# [9] = biological target: 456 kinases (of these 395 non-mutant kinases) (Homo sapiens, UniProt Q9HBH9); settings: MKNK2; 10 μM
# [10] = biological target: 456 kinases (of these 395 non-mutant kinases) (Homo sapiens, UniProt P10721, D816V); settings: KIT(D816V); 10 μM
# [11] = biological target: 456 kinases (of these 395 non-mutant kinases) (Homo sapiens, UniProt P22607); settings: FGFR3; 10 μM
# [12] = biological target: 456 kinases (of these 395 non-mutant kinases) (Homo sapiens, UniProt P42336); settings: PIK3CA; 10 μM
# [13] = biological target: 456 kinases (of these 395 non-mutant kinases) (Homo sapiens, UniProt P49761); settings: CLK3; 10 μM
# [14] = biological target: 456 kinases (of these 395 non-mutant kinases) (Homo sapiens, UniProt P07949); settings: RET; 10 μM
# [15] = biological target: 456 kinases (of these 395 non-mutant kinases) (Homo sapiens, UniProt P06241); settings: FYN; 10 μM
# [16] = biological target: 456 kinases (of these 395 non-mutant kinases) (Homo sapiens, UniProt P00519, F317I); settings: 10 μM
# [17] = biological target: 456 kinases (of these 395 non-mutant kinases) (Homo sapiens, UniProt P00533, T790M); settings: EGFR(T790M); 10 μM
# [18] = biological target: 456 kinases (of these 395 non-mutant kinases) (Homo sapiens, UniProt P07949, V804M); settings: RET(V804M); 10 μM
# [19] = biological target: 456 kinases (of these 395 non-mutant kinases) (Homo sapiens, UniProt P00519, Q252H); settings: 10 μM
# [20] = biological target: 456 kinases (of these 395 non-mutant kinases) (Homo sapiens, UniProt P22607, G697C); settings: FGFR3(G697C); 10 μM
# [21] = biological target: 456 kinases (of these 395 non-mutant kinases) (Homo sapiens, UniProt Q9NYY3); settings: PLK2; 10 μM
# [22] = biological target: 456 kinases (of these 395 non-mutant kinases) (Homo sapiens, UniProt Q04759); settings: PRKCQ; 10 μM
# [23] = biological target: 456 kinases (of these 395 non-mutant kinases) (Homo sapiens, UniProt Q86UX6); settings: YANK3; 10 μM
# [24] = biological target: 456 kinases (of these 395 non-mutant kinases) (Homo sapiens, UniProt P29322); settings: EPHA8; 10 μM
# [25] = biological target: 456 kinases (of these 395 non-mutant kinases) (Homo sapiens, UniProt Q9NRM7); settings: LATS2; 10 μM
# [26] = biological target: 456 kinases (of these 395 non-mutant kinases) (Homo sapiens, UniProt Q8TDR2); settings: STK35; 10 μM
# [27] = biological target: 456 kinases (of these 395 non-mutant kinases) (Homo sapiens, UniProt P24723); settings: PRKCH; 10 μM
# [28] = biological target: 456 kinases (of these 395 non-mutant kinases) (Homo sapiens, UniProt O00444); settings: PLK4; 10 μM
# [29] = biological target: 456 kinases (of these 395 non-mutant kinases) (Homo sapiens, UniProt Q9Y463); settings: DYRK1B; 10 μM
# [30] = biological target: 456 kinases (of these 395 non-mutant kinases) (Homo sapiens, UniProt P54646); settings: AMPK-alpha2; 10 μM
# [31] = biological target: 456 kinases (of these 395 non-mutant kinases) (Homo sapiens, UniProt Q13164); settings: ERK5; 10 μM
# Sequence of 456 kinases (of these 395 non-mutant kinases) (Homo sapiens, UniProt O95747) (O95747 2-527 limits assumed, change not shown): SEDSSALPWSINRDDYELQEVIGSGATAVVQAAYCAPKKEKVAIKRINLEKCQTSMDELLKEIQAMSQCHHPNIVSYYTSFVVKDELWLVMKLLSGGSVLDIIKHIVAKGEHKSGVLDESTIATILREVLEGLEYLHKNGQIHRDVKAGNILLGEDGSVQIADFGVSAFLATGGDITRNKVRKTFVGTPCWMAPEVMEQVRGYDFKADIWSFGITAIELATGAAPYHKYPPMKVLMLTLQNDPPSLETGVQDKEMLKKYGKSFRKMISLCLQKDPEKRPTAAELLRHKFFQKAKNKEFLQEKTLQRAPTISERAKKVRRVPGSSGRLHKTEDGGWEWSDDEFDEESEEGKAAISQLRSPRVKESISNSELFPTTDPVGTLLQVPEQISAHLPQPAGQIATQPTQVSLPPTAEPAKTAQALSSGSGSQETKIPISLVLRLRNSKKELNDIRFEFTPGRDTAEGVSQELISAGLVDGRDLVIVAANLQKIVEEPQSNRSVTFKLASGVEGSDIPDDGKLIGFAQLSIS
# Sequence of 456 kinases (of these 395 non-mutant kinases) (Homo sapiens, UniProt P17948) (P17948 27-1338 limits assumed, change not shown): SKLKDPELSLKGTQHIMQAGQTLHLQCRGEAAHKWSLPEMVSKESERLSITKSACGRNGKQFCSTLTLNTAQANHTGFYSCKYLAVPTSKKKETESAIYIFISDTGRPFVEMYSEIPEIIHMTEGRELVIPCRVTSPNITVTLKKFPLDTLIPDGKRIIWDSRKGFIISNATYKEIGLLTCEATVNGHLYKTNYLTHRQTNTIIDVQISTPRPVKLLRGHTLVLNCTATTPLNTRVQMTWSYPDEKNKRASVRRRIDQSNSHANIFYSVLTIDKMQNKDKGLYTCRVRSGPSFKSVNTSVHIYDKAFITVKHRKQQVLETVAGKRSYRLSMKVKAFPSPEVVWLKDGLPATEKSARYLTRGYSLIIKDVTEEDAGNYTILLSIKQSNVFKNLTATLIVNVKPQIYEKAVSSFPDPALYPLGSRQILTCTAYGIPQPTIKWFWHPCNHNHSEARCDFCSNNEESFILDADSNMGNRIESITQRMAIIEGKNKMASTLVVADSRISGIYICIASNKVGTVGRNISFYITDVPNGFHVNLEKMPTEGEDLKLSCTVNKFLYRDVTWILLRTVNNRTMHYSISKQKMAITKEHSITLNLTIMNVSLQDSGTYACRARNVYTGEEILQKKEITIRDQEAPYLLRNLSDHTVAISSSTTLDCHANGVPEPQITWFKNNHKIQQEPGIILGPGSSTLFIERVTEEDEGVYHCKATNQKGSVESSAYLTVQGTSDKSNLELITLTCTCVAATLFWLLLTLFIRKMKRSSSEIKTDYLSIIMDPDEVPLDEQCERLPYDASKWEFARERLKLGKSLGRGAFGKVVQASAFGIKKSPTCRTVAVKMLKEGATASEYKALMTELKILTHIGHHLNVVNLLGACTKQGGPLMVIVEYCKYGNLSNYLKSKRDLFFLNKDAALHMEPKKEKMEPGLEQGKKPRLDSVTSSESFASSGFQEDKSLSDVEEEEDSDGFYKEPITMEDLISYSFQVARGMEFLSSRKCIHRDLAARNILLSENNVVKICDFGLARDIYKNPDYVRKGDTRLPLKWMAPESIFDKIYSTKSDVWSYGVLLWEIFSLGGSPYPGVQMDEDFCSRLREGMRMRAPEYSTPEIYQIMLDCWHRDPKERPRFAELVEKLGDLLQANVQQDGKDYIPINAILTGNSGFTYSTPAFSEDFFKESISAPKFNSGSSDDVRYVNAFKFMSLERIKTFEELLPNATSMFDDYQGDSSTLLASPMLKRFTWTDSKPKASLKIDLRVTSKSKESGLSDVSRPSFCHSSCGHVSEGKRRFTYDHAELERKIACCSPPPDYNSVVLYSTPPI
# Sequence of 456 kinases (of these 395 non-mutant kinases) (Homo sapiens, UniProt Q8WU08) (Q8WU08 2-396 limits assumed, change not shown): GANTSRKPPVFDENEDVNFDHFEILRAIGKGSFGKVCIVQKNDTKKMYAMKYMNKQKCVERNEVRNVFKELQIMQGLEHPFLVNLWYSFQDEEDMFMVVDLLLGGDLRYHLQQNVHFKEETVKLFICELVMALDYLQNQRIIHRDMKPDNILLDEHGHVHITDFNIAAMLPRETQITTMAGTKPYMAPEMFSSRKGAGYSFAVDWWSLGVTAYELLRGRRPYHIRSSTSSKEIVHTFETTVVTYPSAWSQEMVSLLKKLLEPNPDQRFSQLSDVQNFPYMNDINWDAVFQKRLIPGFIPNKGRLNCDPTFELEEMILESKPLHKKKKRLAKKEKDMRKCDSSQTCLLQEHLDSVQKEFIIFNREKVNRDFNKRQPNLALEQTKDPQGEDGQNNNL
# Sequence of 456 kinases (of these 395 non-mutant kinases) (Homo sapiens, UniProt P29322) (P29322 28-1005 limits assumed, change not shown): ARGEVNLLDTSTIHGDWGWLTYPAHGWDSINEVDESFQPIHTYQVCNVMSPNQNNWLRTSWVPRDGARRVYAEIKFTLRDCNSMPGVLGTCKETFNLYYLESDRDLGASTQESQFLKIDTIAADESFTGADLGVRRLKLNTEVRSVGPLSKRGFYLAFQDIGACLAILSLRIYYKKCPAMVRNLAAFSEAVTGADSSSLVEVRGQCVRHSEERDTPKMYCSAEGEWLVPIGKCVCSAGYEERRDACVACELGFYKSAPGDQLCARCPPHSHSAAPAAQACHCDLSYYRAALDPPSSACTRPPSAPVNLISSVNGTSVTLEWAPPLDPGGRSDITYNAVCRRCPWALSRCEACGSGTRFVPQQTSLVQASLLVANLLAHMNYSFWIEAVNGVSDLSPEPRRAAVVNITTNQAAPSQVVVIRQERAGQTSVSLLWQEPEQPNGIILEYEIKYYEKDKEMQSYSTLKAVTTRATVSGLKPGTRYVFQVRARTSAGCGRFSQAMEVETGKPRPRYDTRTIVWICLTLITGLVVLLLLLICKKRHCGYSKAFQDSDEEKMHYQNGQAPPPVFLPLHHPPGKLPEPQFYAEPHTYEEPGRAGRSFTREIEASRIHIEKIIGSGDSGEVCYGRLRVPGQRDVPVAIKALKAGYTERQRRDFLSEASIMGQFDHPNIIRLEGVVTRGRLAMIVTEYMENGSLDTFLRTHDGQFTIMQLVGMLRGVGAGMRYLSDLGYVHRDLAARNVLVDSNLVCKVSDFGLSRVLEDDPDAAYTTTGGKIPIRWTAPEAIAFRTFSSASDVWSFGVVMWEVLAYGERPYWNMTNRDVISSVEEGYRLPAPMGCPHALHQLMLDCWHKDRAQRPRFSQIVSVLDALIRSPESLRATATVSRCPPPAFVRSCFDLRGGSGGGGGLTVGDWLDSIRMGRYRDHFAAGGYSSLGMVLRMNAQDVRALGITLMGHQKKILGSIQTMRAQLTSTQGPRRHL
# Sequence of 456 kinases (of these 395 non-mutant kinases) (Homo sapiens, UniProt P06241) (P06241 2-537 limits assumed, stated change not applied): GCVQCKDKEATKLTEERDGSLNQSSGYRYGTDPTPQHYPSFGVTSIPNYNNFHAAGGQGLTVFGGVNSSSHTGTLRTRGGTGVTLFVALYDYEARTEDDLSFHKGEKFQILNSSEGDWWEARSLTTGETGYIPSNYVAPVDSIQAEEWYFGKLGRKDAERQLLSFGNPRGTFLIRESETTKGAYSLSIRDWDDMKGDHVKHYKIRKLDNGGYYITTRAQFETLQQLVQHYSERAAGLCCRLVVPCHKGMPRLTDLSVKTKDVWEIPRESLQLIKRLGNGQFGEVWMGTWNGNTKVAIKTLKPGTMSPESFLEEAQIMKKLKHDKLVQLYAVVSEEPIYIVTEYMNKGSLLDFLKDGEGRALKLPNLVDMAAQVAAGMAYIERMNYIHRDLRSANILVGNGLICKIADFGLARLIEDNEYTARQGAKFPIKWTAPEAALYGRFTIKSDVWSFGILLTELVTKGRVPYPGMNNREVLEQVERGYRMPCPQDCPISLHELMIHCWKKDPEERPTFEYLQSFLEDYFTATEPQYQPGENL
# Sequence of 456 kinases (of these 395 non-mutant kinases) (Homo sapiens, UniProt P10721, D816V) (P10721 26-976 D816V limits assumed): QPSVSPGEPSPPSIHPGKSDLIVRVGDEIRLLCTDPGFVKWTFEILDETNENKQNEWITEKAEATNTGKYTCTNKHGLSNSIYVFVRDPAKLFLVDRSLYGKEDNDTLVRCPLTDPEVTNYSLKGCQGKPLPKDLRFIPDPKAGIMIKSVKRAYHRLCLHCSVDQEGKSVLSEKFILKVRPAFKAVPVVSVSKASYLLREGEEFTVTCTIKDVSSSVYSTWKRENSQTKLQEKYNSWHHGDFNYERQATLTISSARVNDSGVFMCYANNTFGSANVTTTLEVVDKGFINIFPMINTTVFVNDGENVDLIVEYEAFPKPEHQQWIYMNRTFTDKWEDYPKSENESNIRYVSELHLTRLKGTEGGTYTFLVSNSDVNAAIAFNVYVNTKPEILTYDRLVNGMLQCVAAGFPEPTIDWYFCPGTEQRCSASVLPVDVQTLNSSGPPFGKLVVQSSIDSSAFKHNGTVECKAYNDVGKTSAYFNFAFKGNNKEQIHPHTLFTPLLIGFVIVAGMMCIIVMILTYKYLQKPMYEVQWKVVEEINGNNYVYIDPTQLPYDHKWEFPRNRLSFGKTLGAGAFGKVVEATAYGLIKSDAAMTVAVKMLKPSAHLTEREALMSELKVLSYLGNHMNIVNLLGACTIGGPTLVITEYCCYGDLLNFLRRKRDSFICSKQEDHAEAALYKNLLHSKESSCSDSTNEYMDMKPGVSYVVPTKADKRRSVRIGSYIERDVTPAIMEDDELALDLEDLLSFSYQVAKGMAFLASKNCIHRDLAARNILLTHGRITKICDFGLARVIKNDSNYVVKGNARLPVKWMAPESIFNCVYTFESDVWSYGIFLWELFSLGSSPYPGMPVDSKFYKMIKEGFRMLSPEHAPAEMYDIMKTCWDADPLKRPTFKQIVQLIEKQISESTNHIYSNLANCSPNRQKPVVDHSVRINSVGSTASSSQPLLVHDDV
structure (smiles),measurement,setting,value
"CCc1ccccc1NC(=O)c1c(C)nsc1Nc1cnc2cc(F)ccc2n1 [Example 20, N-(2-Ethylphenyl)-5-[(6-fluoroquinoxalin-2-yl)amino]-3-methyl-1,2-thiazole-4-carboxamide]",% Ctrl @ 10 μM,[1],74 % Ctrl
same,% Ctrl @ 10 μM,[2],88 % Ctrl
same,% Ctrl @ 10 μM,[3],100 % Ctrl
same,% Ctrl @ 10 μM,[4]; RSK3(Kin.Dom.1-N-terminal),72 % Ctrl
same,% Ctrl @ 10 μM,[4]; RSK3(Kin.Dom.2-C-terminal),79 % Ctrl
same,% Ctrl @ 10 μM,[5],66 % Ctrl
same,% Ctrl @ 10 μM,[6],71 % Ctrl
same,% Ctrl @ 10 μM,[7],97 % Ctrl
same,% Ctrl @ 10 μM,[8],100 % Ctrl
same,% Ctrl @ 10 μM,[9],100 % Ctrl
same,% Ctrl @ 10 μM,[10],61 % Ctrl
same,% Ctrl @ 10 μM,[11],85 % Ctrl
same,% Ctrl @ 10 μM,[12],100 % Ctrl
same,% Ctrl @ 10 μM,[13],74 % Ctrl
same,% Ctrl @ 10 μM,[14],88 % Ctrl
same,% Ctrl @ 10 μM,[15],57 % Ctrl
same,% Ctrl @ 10 μM,[16]; ABL1(F317I)-nonphosphorylated,100 % Ctrl
same,% Ctrl @ 10 μM,[16]; ABL1(F317I)-phosphorylated,86 % Ctrl
same,% Ctrl @ 10 μM,[17],100 % Ctrl
same,% Ctrl @ 10 μM,[18],100 % Ctrl
same,% Ctrl @ 10 μM,[19]; ABL1(Q252H)-nonphosphorylated,100 % Ctrl
same,% Ctrl @ 10 μM,[19]; ABL1(Q252H)-phosphorylated,100 % Ctrl
same,% Ctrl @ 10 μM,[20],87 % Ctrl
same,% Ctrl @ 10 μM,[21],90 % Ctrl
same,% Ctrl @ 10 μM,[22],76 % Ctrl
same,% Ctrl @ 10 μM,[23],67 % Ctrl
same,% Ctrl @ 10 μM,[24],96 % Ctrl
same,% Ctrl @ 10 μM,[25],94 % Ctrl
same,% Ctrl @ 10 μM,[26],84 % Ctrl
same,% Ctrl @ 10 μM,[27],100 % Ctrl
same,% Ctrl @ 10 μM,[28],100 % Ctrl
same,% Ctrl @ 10 μM,[29],100 % Ctrl
same,% Ctrl @ 10 μM,[30],100 % Ctrl
same,% Ctrl @ 10 μM,[31],100 % Ctrl
